Series [1] can be described thus: Stability of TSC in formulation as a function of pH. It counts as physicochemical. Conditions: formulation with glycine buffer; pH around 8.2+/-0.5 required.
Series [2] is described as follows: Absorption of TSC into the blood stream after intramuscular injection with gamma cyclodextrin. The settings on record: rats. It is filed as in vivo.
A short description of series [3]: Solubility of TSC in aqueous cyclodextrin solutions. It is filed as physicochemical.
In series [4] the test system is ischemic tissue in brain sections. Kind of series: Ischemic stroke model: middle cerebral artery and two carotid arteries ligated for 2 hours. It is filed as in vivo. Conditions: TSC 0.1 mg/kg given after removal of 2 hour ligature; rats sacrificed after 24 hours. The protocol:
In order to find new drugs for stoke victims, different animal models of ischemic stroke are used. In one model, blood vessels (middle cerebral artery, two carotid arteries) are ligated for a period of 2 hours. The ligature is then removed, a drug is given, and the animals (rats in this case) are sacrificed after 24 hours. The brain sections are stained and examined in order to determine the amount of damaged (ischemic) tissue.

The subject of series [5] is collagenase-injection model of ICH. In words: Collagenase-injection model of intracranial hemorrhage (ICH). It counts as in vivo, Sprague-Dawley rats. The protocol:
Twelve male, Sprague-Dawley rats (Taconic, Inc.), weighing between 250 to 300 Grams were fed ad libitum and maintained on a 12-hour light/dark cycle. The rats were randomly assigned to 1 of 2 groups as follows: TSC-treated group (n=6) receiving intravenous infusion of TSC (total dose 0.091 mg/kg) and a Control group receiving intravenous infusion of 0.9% normal saline. A collagenase-injection model of ICH was utilized. Animals were anesthetized for 5 minutes with 5% halothane and endotracheally intubated. Anesthesia was maintained under 1 to 1.5% halothane with ventilation supported using Fi02 of 50%. Tail artery cannulation was applied to monitor the blood pressure and arterial blood gas, and a rectal temperature probe monitored body temperature. The right femoral vein was cannulated and connected to a microinjection infusion pump for TSC or saline administration. Body temperature was maintained at 37° C. with a heating pad. Rats were secured into a stereotactic frame with a midline incision over the skull and a cranial burr hole of 1 mm in diameter was drilled with 0.2 mm anterior and 3.5 mm right lateral to Bregma. A 26-gauge needle was inserted stereotactically into the right basal ganglion (5.5 mm ventral) and 5 μL collagenase (0.05 U bacteria collagenase; type IV, Sigma Chemical Co.) was infused at a rate of 1 μL/min using a microinfusion pump. The needle was kept in the striatum for an additional 5 minutes to limit collagenase flow back into the burr hole. After withdrawing the needle, the craniotomy was sealed with bone wax and the wound was sutured closed. TSC was injected intravenously 3 hours after ICH at a final total dosage of 0.091 mg/kg. The TSC formulation used was the sterile lyophilized TSC injectable formulation which was reconstituted with sterile water for injection and diluted with deionized water pH'd to 8.0 with dilute sodium carbonate. […] The outcomes assessed 48 hours post-ICH included hematoma volume, hemoglobin content representing hemorrhagic volume in the injected striatum, and tissue edema. […] Using Meta Morph image analysis software, the hemorrhage area for each section was measured and the total hematoma volume was calculated by summing the clot area in each section and multiplying by the thickness of the sections. A tissue edema index was calculated in each rat by measuring and comparing both of the hemispheres (Edema Index=(R−L)×100/L, R is right hemisphere volume, L is left hemisphere volume). A hemorrhagic volume index was quantified by measuring hemoglobin content in the injected hemisphere. […] This reaction converts hemoglobin to cyanomethemoglobin, the concentration of which can be assessed by the optical density (OD) of the solution at 550 nm wavelength. […]

For series [6], the system named is rabbit small clot embolic stroke model (RSCEM). Kind of series: Rabbit small clot embolic stroke model (RSCEM), quantal dose-response analysis of behavior. It counts as in vivo, Male New Zealand white rabbits. Conditions: TSC 0.25 mg/kg IV bolus 1 hour post-embolization; behavior measured 24 hours following embolization; Mean±SEM. From the text: Methods: This model uses rabbits and is known as RSCEM. Male New Zealand white rabbits were anesthetized using isoflurane (5% induction, 2% maintenance by facemask), the bifurcation of the right carotid artery was exposed and the external carotid was ligated just distal to the bifurcation, where a catheter was inserted into the common carotid and secured with ligatures. The incision was closed around the catheter with the distal ends left accessible outside the neck; the catheter was filled with heparinized saline and plugged with an injection cap. Rabbits were allowed to recover from anesthesia for a minimum of 2 h until they behaved normally. […] Microclots were re-suspended in PBS, then washed and allowed to settle, followed by aspiration of the supernatant and spiking of the microclots with tracer quantities of 15-μm radiolabeled microspheres. The specific activity of the particles was determined by removing an aliquot, after which appropriate volumes of PBS solution were added so that a predetermined weight of clot particles were rapidly injected through the catheter and both the syringe and catheter were flushed with 5 ml of normal saline. […]
These parameters are measures of the amount of microclots (in mg) that produce neurologic dysfunction in 50% of a group of animals (P50). The P50 values are then calculated as described previously and are presented as Mean±SEM. […]

[7] abbreviates: TSC 0.1 mg/kg, rat collagenase model (summary in description).

Values joined by “and” are separate entries in the source; they are usually repeats but may differ in a detail not shown here. Identical values can stand only once. “Also recorded” adds a separate entry of the source.

With `CC(/C=C/C=C(\C)C(=O)[O-])=C\C=C\C=C(C)\C=C\C=C(/C)C(=O)[O-].[Na+].[Na+]` [TSC, trans sodium crocetinate], the “stability versus pH” value in series [1] is “more stable at higher pHs”. In addition, the “absorption into the blood stream” value in series [2] is “quick”. Moreover, the “TSC concentration reached in aqueous solution” value in series [3] (TSC and gamma-cyclodextrin) is ≤ 44 milligrams of TSC per ml of solution. Besides, the “TSC concentration reached in solution” value in series [3] (TSC formulated with a cyclodextrin and mannitol) was “over 20 mg TSC/ml of solution”. Moreover, the “reduction in the amount of ischemic tissue” value in series [4] is given as “about 60%”. For the same compound, in series [5] (setting [7]), the “hemorrhage volume (amount of blood that hemorrhages into the brain)” value is given as “decrease” and the “reduction in amount of edema caused by the hemorrhagic stroke” value is “about 50%”. Also, in series [5] (TSC total dose 0.091 mg/kg IV starting 3 hours after ICH, assessed 48 hours post-ICH, n=6, 0.091 mg/kg), the “hematoma volume/size after ICH vs saline control” value was “slightly, but not statistically significantly, reduced; also recorded: did not differ”. Besides, the “reduction in hemorrhagic volume (tissue hemoglobin content) vs saline control” value in series [5] (TSC total dose 0.091 mg/kg IV starting 3 hours after ICH, assessed 48 hours post-ICH, n=6, p<0.05) is “approximately 20%”. Further, in series [6], the “P50 (amount of microclots that produces neurologic dysfunction in 50% of a group of animals)” value was 2.84±1.01 mg and 2.84±0.51 mg.

These data come from patent US11147859B2, “Diffusion enhancing compounds and their use alone or with thrombolytics” (Diffusion Pharmaceuticals LLC, priority 2009, dated 2021).
